This note sets out measurements from US20210386705A1, “APPLICATION OF CHIGLITAZAR AND RELATED COMPOUNDS THEREOF” (SHENZHEN CHIPSCREEN BIOSCIENCES CO., LTD., priority 2018, published 2021).

Common to all, as to assay type: cell-based
In assay [1] the target is T1, PPARγ (Homo sapiens, UniProt P37231).
T1 construct: expressed in transfected cells; host or cells: human hepatocyte cell line L-02
T1 sequence (P37231 1-505): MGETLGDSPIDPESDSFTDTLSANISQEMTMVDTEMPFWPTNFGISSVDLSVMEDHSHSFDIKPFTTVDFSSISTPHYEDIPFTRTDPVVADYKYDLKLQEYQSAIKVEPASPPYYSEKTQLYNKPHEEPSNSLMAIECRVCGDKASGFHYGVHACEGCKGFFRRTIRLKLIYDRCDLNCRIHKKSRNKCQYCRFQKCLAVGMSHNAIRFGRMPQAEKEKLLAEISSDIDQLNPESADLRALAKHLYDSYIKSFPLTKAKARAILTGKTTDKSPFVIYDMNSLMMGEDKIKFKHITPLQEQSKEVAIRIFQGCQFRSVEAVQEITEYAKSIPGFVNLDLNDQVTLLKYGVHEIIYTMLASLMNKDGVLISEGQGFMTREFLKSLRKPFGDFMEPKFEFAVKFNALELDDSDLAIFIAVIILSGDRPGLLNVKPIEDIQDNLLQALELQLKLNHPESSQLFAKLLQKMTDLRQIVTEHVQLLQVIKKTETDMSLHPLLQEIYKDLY
T1 sequence (P19793 1-462 partner): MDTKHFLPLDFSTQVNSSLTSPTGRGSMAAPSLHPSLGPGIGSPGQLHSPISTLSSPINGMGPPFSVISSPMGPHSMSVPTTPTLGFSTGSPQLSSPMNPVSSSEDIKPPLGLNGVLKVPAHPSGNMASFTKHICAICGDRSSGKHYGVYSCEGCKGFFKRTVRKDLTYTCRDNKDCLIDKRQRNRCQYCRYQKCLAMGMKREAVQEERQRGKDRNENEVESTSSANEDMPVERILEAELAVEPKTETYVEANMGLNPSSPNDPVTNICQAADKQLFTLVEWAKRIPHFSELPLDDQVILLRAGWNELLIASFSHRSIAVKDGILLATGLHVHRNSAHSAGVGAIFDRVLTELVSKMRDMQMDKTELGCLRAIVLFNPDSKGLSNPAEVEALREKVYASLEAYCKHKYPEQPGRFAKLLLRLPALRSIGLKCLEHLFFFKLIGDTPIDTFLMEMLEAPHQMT
The assay can be described thus: PPAR reporter gene model in L-02 cells, PPARγ. Particulars: luciferase reporter, 24 hours drug, read-out: Half-maximal activation concentration of reporter gene AC50, PPARγ. As for the experimental part: (§1) The PPAR reporter gene model comprises three subtypes of expression plasmids, RXR expression plasmid, plasmid with luciferase reporter gene, and GFP expression plasmid as an external reference. The human hepatocyte cell line L-02 cells were seeded into 96-well plates at the density of 15,000 cells/well with about 50% plating rate, followed by culturing for 24 hours at 37° C. […] The fluorescence intensity (at wavelength 485-527 nm) of green fluorescent protein (GFP) in each well was firstly detected as an internal standard by a fluorescence detector, and then 30 μL of luciferase substrates (Promega, E151A) were added to each well. After slightly shaking to mix well, the […] were detected. The relative reporter gene activation intensity was obtained by the ratio of the fluorescence detection signal of the drugs to be tested to that of the solvent control, with both the signals normalized to the internal standard GFP signal. The half-maximal activation (AC50) of the drugs to be tested was calculated with the activity at various concentrations (shown in Table 1).
Background: A reporter such as luciferase makes a cellular process visible.

For assay [2], the target named is T2, PPARδ (Homo sapiens, UniProt Q03181).
T2 construct: expressed in transfected cells; host or cells: human hepatocyte cell line L-02
T2 sequence (Q03181 1-441): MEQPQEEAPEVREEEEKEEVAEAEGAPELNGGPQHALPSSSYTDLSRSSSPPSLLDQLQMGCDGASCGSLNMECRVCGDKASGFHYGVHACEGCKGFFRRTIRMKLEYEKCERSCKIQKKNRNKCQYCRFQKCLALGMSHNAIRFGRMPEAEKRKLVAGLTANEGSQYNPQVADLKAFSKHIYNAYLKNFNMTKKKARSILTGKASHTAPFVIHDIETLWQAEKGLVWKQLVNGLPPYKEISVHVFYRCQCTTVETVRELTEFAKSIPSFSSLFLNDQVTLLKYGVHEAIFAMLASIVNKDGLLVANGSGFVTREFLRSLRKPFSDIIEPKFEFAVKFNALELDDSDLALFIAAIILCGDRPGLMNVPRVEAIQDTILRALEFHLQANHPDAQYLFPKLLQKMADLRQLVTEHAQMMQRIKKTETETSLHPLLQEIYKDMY
T2 sequence (P19793 1-462 partner): T1 sequence (P19793 1-462 partner)
The assay can be described thus: PPAR reporter gene model in L-02 cells, PPARδ. Particulars: luciferase reporter, 24 hours drug, read-out: Half-maximal activation concentration of reporter gene AC50, PPARδ. As for the experimental part: as §1

Assay [3] relates to primary human hepatic stellate cells. The assay can be described thus: PDGF-BB stimulated proliferation of hepatic stellate cells (EdU and MTT assay). Conditions: EdU 24 hours, MTT 72 hours, FIGS. 1-2. As for the experimental part: Primary human hepatic stellate cells (HSC) purchased from Sciencell Research Laboratories, Inc. were seeded into 96-well plates with complete growth media (Stellate Cell Medium) for 24 hours, followed by culturing overnight in culture media free of serum and growth factors, and then the culture media were replaced by fresh media containing platelet-derived growth factor (PDGF-BB) and the compounds to be tested (chiglitazar sodium or the reference compound PPARγ/α dual agonist pioglitazone purchased from Selleck Chemicals LLC) at various concentrations, and the cells were cultured for 24 hours. When the cells were treated with the compounds for the last 17 hours, EdU (5-ethynyl-2′-deoxyuridine) was added to the cells. Finally, the culture media were removed and the cells were fixed with formaldehyde. The amount of the EdU incorporated into the DNA of the cells was quantified by fluorescent Click-it EdU assay according to the manufacturer's instructions (Beyotime). […] The inhibition of cell proliferation by the compounds was determined by comparing the EdU incorporated value of the control group (FIG. 1). […]
For orientation: Tetrazolium assays rely on reduction of a dye to a coloured formazan, in cell work by metabolically active cells.

On to `O=C(c1ccc(F)cc1)c1ccccc1N[C@@H](Cc1ccc(OCCn2c3ccccc3c3ccccc32)cc1)C(=O)[O-].[Na+]` [sodium chiglitazar], for which the AC50 in assay [1] was 91 nM; in assay [2], 708 nM. Moreover, the “Inhibition of in vitro proliferation of liver-derived fibroblasts” value in assay [3] is listed as “had inhibitory activity”.
